How the values were obtained:
[1] = target: Phosphodiesterase 3 (Homo sapiens) (UniProt Q14432+Q13370); assay: Inhibition of Phosphodiesterase 3 from human platelets; design: concentration or dose not given beside the values; settings: concentration not given here
Phosphodiesterase 4 [2] = target: Phosphodiesterase 4 (Homo sapiens, UniProt P27815+Q08499+Q07343+Q08493); assay: Inhibition of Phosphodiesterase 4 from human U937 cells; assay type: cell-based; settings: u-937
Phosphodiesterase 4 [3] = target: T1, Phosphodiesterase 4 (Rattus norvegicus, UniProt P14270+P14646+P14644+P54748); assay: Inhibition of rolipram binding in rat brain tissue; assay type: tissue-based
[4] = Relative activity against human Phosphodiesterase type 4 (PDE4) and rat rolipram binding protein (RBA); design: reference not given here
Phosphodiesterase 4 [5] = target: T1, Phosphodiesterase 4; assay: Inhibition of rolipram binding to rat brain tissue; assay type: tissue-based
Phosphodiesterase 4 [6] = target: T1, Phosphodiesterase 4; assay: Inhibition of rolipram binding to rat brain tissue at 20 uM; assay type: tissue-based

inhibition [1] [%]	IC50 (Phosphodiesterase 4 [2]) [nM]	IC50 (Phosphodiesterase 4 [3]) [nM]	Ratio [4]	IC50 (Phosphodiesterase 4 [5]) [nM]	IC50 (Phosphodiesterase 4 [6]) [nM]	SMILES
34	17					COc1ccc(C(=O)Nc2c(Cl)cncc2Cl)c2cc(CC(C)(C)C)oc12
	120	250	0.48			COc1ccc(C(=O)Nc2ccncc2)c2cc(C(C)=O)oc12
23	8.6					COc1ccc(C(=O)Nc2c(Cl)cncc2Cl)c2cc(C(C)O)oc12 (stereo not given)
46	27					CCc1cc2c(C(=O)Nc3c(Cl)cncc3Cl)ccc(OC)c2o1
	54		0.21	248		COc1ccc(C(=O)Nc2ccccc2Cl)c2cc(C(C)=O)oc12
38	770					COc1ccc(C(=O)Nc2c(Cl)cncc2Cl)c2cc(C(=O)O)oc12
	320	160				COc1ccc(C(=O)Nc2c(Cl)cncc2Cl)c2c(C)c(C(C)=O)oc12
32	1.6					COc1ccc(C(=O)Nc2c(Cl)cncc2Cl)c2cc(C(C)=O)oc12
7	2.41		0.3		8.1	COc1ccc(C(=O)Nc2c(Cl)cncc2Cl)c2cc(C(=O)c3ccncc3)oc12
31						COc1ccc(C(=O)Nc2c(Cl)cncc2Cl)c2cc(C#N)oc12
	330	150				COc1ccc(C(=O)N(C)c2c(Cl)cncc2Cl)c2cc(C(C)=O)oc12
	452	1850	0.24			COc1ccc(C(=O)Nc2ncccc2C)c2cc(C(C)=O)oc12
	6.3	32	0.197			COc1ccc(C(=O)Nc2ccncc2Cl)c2cc(C(C)=O)oc12
	85.1	228	0.37			COc1ccc(C(=O)Nc2c(Cl)cc(C#N)cc2Cl)c2cc(C(C)=O)oc12
	875	199	4.4			COc1ccc(C(=O)Nc2cccnc2Cl)c2cc(C(C)=O)oc12
	164	59.6	2.75			COc1ccc(C(=O)Nc2ncncc2Cl)c2cc(C(C)=O)oc12

Reference: ChEMBL document CHEMBL1132733, “7-Methoxybenzofuran-4-carboxamides as PDE 4 inhibitors: a potential treatment for asthma” (Bioorg Med Chem Lett, 2000)
